Experimental data reported in patent US20130244879A1, “USE OF LIPO-CHITOOLIGOSACCHARIDES TO INITIATE EARLY FLOWERING AND FRUIT DEVELOPMENT IN PLANTS AND RELATED METHODS AND COMPOSITIONS” (NOVOZYMES BIOLOGICALS HOLDING A/S, priority 2003, published 2013).

Assays:
Type in all cases: in vivo
[1] = test system: Red tomato (cv. Mountain Spring); experiment: Experiment 15: LCO application on early fruit number and yield, field tomato
Method: Red tomato seedlings (cv. Mountain Spring) were transplanted at their 4-leaf stage. 7 plants in one row were transplanted in each plot of 3.5×2.5M2. The row was covered with 65 cm width black plastic mulch, one week before transplanting. Fertilizer (10-52-10) solution of 250 pprn was applied into the planting hole through the mulch when transplanting (approx. 250 ml/plant). the drip irrigation system was set to twice a week and 4 hours each time, depending on the soil moisture. Plants were sprayed with LCO 15 days after transplant (5 ml/plant) and 29 days after transplant (20 ml/plant). Fruits were first harvested 67 days after transplant.

Tomato = experiment: Experiment 16: LCO application on fruit number and weight at end of season; conditions: LCO applied once at 50 ng, 20-40 days after transplantation
Description: Tomato seedlings (6 leaf-stage) were transplanted. The plants were watered on the day they were transplanted and whenever the soil was very dry during the season. Fertilizer (20-20-20) was applied at 250 kg/ha to the tomato field before transplantation. All tomato plants were supported with sticks when they were heavily loaded with fruit. Fruit yield was finally cumulated at the end of the season 115 days after transplant.

sweet corn = experiment: Experiment 8: foliar application of LCO on sweet corn
Description: Fertilizer (36-12-18) was applied to the corn field at 500 kg/ha before seeding. A machine planter was employed to sow sweet corn grain. Plot size was 4×4.5=18 M^2, and 6 rows/plot. To protect corn ears from raccoons and other animal damage, sweet corn plants were protected with an electric fence around the plots after silking. LCO was applied once 40 days after sowing or/and twice, 40 days after sowing and 58 days after sowing at a rate of 200 L/ha for the first application and 300 L/ha for the second application. Corn was harvested 80 days after sowing, from the two middle rows and corn ears reaching 12 cm or longer were counted as marketable.

Cobra tomatoes = experiment: Trial 2: LCO dose and timing on greenhouse tomato (Cobra)
Method: The Cobra variety was used to re-examine optimal doses of LCO. The concentrations tested were 50 ng and 75 ng LCO per plant, applied once (2 weeks after transplanting) and twice (4 weeks after transplanting). The sample number was increased to 20 plants.

Marigold = experiment: Experiment 5: foliar application of LCO to bedding plants (Marigold)
Description: This is a growth room study. Seeds of garden plant species were selected on the basis of seed-purchase popularity (Norseco, Montreal), grown in trays of Pro-Mix (NB. trademarked name) Seeding Medium, and at some size were transplanted into trays of 36 and 32 wells containing the same medium. Growth proceeded under lights in the growth room. Some 2 weeks before expected flowering, 16 young plants were sprayed with each of various levels of LCO leaving control plants untreated. The results are presented in Table 5A on bud formation and where possible opened flowers.

[2] = 50 ml/16 plants of 3 × 10^−8M LCO

**Q.** For Lipo-chitooligosaccharides [LCO], which optimal application ([1]; early fruit number and weight) is on record?
**A.** 75 ng/plant

**Q.** And the “early fruit number and weight” value ([1]; foliar spray 15 and 29 days after transplant)?
**A.** significantly increased

**Q.** What about the increased fruit number (Tomato) of the same substance?
**A.** up to 33%

**Q.** What about the “Average Length (cm)/ear” value (sweet corn; 10^−7M once) of the same substance?
**A.** 13.12 c cm

**Q.** What about the “Ear No/plant” value (sweet corn; 10^−7M once) of the same substance?
**A.** 0.934

**Q.** And the “Ear Weight (kg)/ha” value (sweet corn; 10^−7M once)?
**A.** 4383.3 kg/ha

**Q.** What about the Ear/ha (sweet corn; 10^−7M once) of the same substance?
**A.** 65416.7 ab /ha

**Q.** And the Marketable ears/ha (sweet corn; 10^−7M once)?
**A.** 25000.0 /ha

**Q.** What about the “Average Length (cm)/ear” value (sweet corn; 10^−7M twice) of the same substance?
**A.** 13.81 ab cm

**Q.** And the “Ear No/plant” value (sweet corn; 10^−7M twice)?
**A.** 0.935

**Q.** What about the “Ear Weight (kg)/ha” value (sweet corn; 10^−7M twice) of the same substance?
**A.** 5000.0 kg/ha

**Q.** What about the Ear/ha (sweet corn; 10^−7M twice) of the same substance?
**A.** 70833.3 a /ha

**Q.** What about the Marketable ears/ha (sweet corn; 10^−7M twice) of the same substance?
**A.** 30416.7 /ha

**Q.** And the “Average Length (cm)/ear” value (sweet corn; 10^−8M once)?
**A.** 13.24 bc cm

**Q.** And the “Ear No/plant” value (sweet corn; 10^−8M once)?
**A.** 0.905

**Q.** And the “Ear Weight (kg)/ha” value (sweet corn; 10^−8M once)?
**A.** 4800.0 kg/ha

**Q.** What about the Ear/ha (sweet corn; 10^−8M once) of the same substance?
**A.** 67083.3 ab /ha

**Q.** What about the Marketable ears/ha (sweet corn; 10^−8M once) of the same substance?
**A.** 26250.0 /ha

**Q.** What about the “Average Length (cm)/ear” value (sweet corn; 10^−8M twice) of the same substance?
**A.** 13.64 abc cm

**Q.** What about the “Ear No/plant” value (sweet corn; 10^−8M twice) of the same substance?
**A.** 0.856

**Q.** What about the “Ear Weight (kg)/ha” value (sweet corn; 10^−8M twice) of the same substance?
**A.** 5150.0 kg/ha

**Q.** What about the Ear/ha (sweet corn; 10^−8M twice) of the same substance?
**A.** 62083.3 ab /ha

**Q.** And the Marketable ears/ha (sweet corn; 10^−8M twice)?
**A.** 30000.0 /ha

**Q.** What about the “Average Length (cm)/ear” value (sweet corn; 10^−9M once) of the same substance?
**A.** 13.68 abc cm

**Q.** What about the “Ear No/plant” value (sweet corn; 10^−9M once) of the same substance?
**A.** 0.928

**Q.** And the “Ear Weight (kg)/ha” value (sweet corn; 10^−9M once)?
**A.** 4266.7 kg/ha

**Q.** And the Ear/ha (sweet corn; 10^−9M once)?
**A.** 68333.3 a /ha

**Q.** And the Marketable ears/ha (sweet corn; 10^−9M once)?
**A.** 29166.7 /ha

**Q.** And the “Average Length (cm)/ear” value (sweet corn; 10^−9M twice)?
**A.** 13.43 bc cm

**Q.** What about the “Ear No/plant” value (sweet corn; 10^−9M twice) of the same substance?
**A.** 0.886

**Q.** What about the “Ear Weight (kg)/ha” value (sweet corn; 10^−9M twice) of the same substance?
**A.** 4033.3 kg/ha

**Q.** What about the Ear/ha (sweet corn; 10^−9M twice) of the same substance?
**A.** 56666.7 bc /ha

**Q.** And the Marketable ears/ha (sweet corn; 10^−9M twice)?
**A.** 25000.0 /ha

**Q.** What about the “total number of sweet corn ears” value (sweet corn; foliar application in the range of 10^−8-10^−7M) of the same substance?
**A.** significantly increased

**Q.** What about the “advance in flowering (attaining same flower number as control)” value (Cobra tomatoes; 50 ng treatment) of the same substance?
**A.** ~3 days

**Q.** What about the “advance of equivalent fruit numbers over control” value (Cobra tomatoes; 50 ng/plant application twice) of the same substance?
**A.** 2 weeks

**Q.** And the “Flower Number/Plant” value (Cobra tomatoes; LCO 50 ng once, April 4)?
**A.** 32.45

**Q.** What about the “Fruit Number/Plant” value (Cobra tomatoes; LCO 50 ng once, April 4) of the same substance?
**A.** 1.3 b

**Q.** What about the “Flower Number/Plant” value (Cobra tomatoes; LCO 50 ng once, Feb. 28) of the same substance?
**A.** 0.0 b

**Q.** What about the “Flower Number/Plant” value (Cobra tomatoes; LCO 50 ng once, Mar. 7) of the same substance?
**A.** 2.5 ab

**Q.** What about the “Flower Number/Plant” value (Cobra tomatoes; LCO 50 ng once, Mar. 14) of the same substance?
**A.** 7.4 ab

**Q.** And the “Fruit Number/Plant” value (Cobra tomatoes; LCO 50 ng once, Mar. 14)?
**A.** 0.05 b

**Q.** And the “Flower Number/Plant” value (Cobra tomatoes; LCO 50 ng once, Mar. 21)?
**A.** 14.55

**Q.** What about the Fruit Number/Plant (Cobra tomatoes; LCO 50 ng once, Mar. 21) of the same substance?
**A.** 0.25

**Q.** What about the “Flower Number/Plant” value (Cobra tomatoes; LCO 50 ng once, Mar. 28) of the same substance?
**A.** 23.95

**Q.** And the “Fruit Number/Plant” value (Cobra tomatoes; LCO 50 ng once, Mar. 28)?
**A.** 0.525 c

**Q.** What about the “Flower Number/Plant” value (Cobra tomatoes; LCO 50 ng twice, April 4) of the same substance?
**A.** 32.2

**Q.** What about the “Fruit Number/Plant” value (Cobra tomatoes; LCO 50 ng twice, April 4) of the same substance?
**A.** 2.5 a

**Q.** And the “Flower Number/Plant” value (Cobra tomatoes; LCO 50 ng twice, Feb. 28)?
**A.** 0.2 a

**Q.** What about the “Flower Number/Plant” value (Cobra tomatoes; LCO 50 ng twice, Mar. 7) of the same substance?
**A.** 3.2 a

**Q.** What about the “Flower Number/Plant” value (Cobra tomatoes; LCO 50 ng twice, Mar. 14) of the same substance?
**A.** 8.4 a

**Q.** And the “Fruit Number/Plant” value (Cobra tomatoes; LCO 50 ng twice, Mar. 14)?
**A.** 0.75 a

**Q.** What about the “Flower Number/Plant” value (Cobra tomatoes; LCO 50 ng twice, Mar. 21) of the same substance?
**A.** 16.0

**Q.** And the “Fruit Number/Plant” value (Cobra tomatoes; LCO 50 ng twice, Mar. 21)?
**A.** 1.8 a

**Q.** What about the “Flower Number/Plant” value (Cobra tomatoes; LCO 50 ng twice, Mar. 28) of the same substance?
**A.** 25.15

**Q.** What about the “Fruit Number/Plant” value (Cobra tomatoes; LCO 50 ng twice, Mar. 28) of the same substance?
**A.** 2.025 a

**Q.** And the “Flower Number/Plant” value (Cobra tomatoes; LCO 75 ng once, April 4)?
**A.** 28.0

**Q.** What about the “Fruit Number/Plant” value (Cobra tomatoes; LCO 75 ng once, April 4) of the same substance?
**A.** 1.45 b

**Q.** And the “Flower Number/Plant” value (Cobra tomatoes; LCO 75 ng once, Feb. 28)?
**A.** 0.0 b

**Q.** What about the “Flower Number/Plant” value (Cobra tomatoes; LCO 75 ng once, Mar. 7) of the same substance?
**A.** 2.85 ab

**Q.** What about the “Flower Number/Plant” value (Cobra tomatoes; LCO 75 ng once, Mar. 14) of the same substance?
**A.** 7.35 ab

**Q.** And the “Fruit Number/Plant” value (Cobra tomatoes; LCO 75 ng once, Mar. 14)?
**A.** 0.45 ab

**Q.** What about the “Flower Number/Plant” value (Cobra tomatoes; LCO 75 ng once, Mar. 21) of the same substance?
**A.** 14.2

**Q.** What about the “Fruit Number/Plant” value (Cobra tomatoes; LCO 75 ng once, Mar. 21) of the same substance?
**A.** 0.9 bc

**Q.** What about the “Flower Number/Plant” value (Cobra tomatoes; LCO 75 ng once, Mar. 28) of the same substance?
**A.** 21.4

**Q.** And the “Fruit Number/Plant” value (Cobra tomatoes; LCO 75 ng once, Mar. 28)?
**A.** 1.15 bc

**Q.** What about the “Flower Number/Plant” value (Cobra tomatoes; LCO 75 ng twice, April 4) of the same substance?
**A.** 31.0

**Q.** And the “Fruit Number/Plant” value (Cobra tomatoes; LCO 75 ng twice, April 4)?
**A.** 1.9 ab

**Q.** And the “Flower Number/Plant” value (Cobra tomatoes; LCO 75 ng twice, Feb. 28)?
**A.** 0.0 b

**Q.** What about the “Flower Number/Plant” value (Cobra tomatoes; LCO 75 ng twice, Mar. 7) of the same substance?
**A.** 3.25 a

**Q.** And the “Flower Number/Plant” value (Cobra tomatoes; LCO 75 ng twice, Mar. 14)?
**A.** 7.35 ab

**Q.** And the “Fruit Number/Plant” value (Cobra tomatoes; LCO 75 ng twice, Mar. 14)?
**A.** 0.6 ab

**Q.** What about the “Flower Number/Plant” value (Cobra tomatoes; LCO 75 ng twice, Mar. 21) of the same substance?
**A.** 15.4

**Q.** What about the “Fruit Number/Plant” value (Cobra tomatoes; LCO 75 ng twice, Mar. 21) of the same substance?
**A.** 1.0 b

**Q.** What about the “Flower Number/Plant” value (Cobra tomatoes; LCO 75 ng twice, Mar. 28) of the same substance?
**A.** 23.35

**Q.** What about the “Fruit Number/Plant” value (Cobra tomatoes; LCO 75 ng twice, Mar. 28) of the same substance?
**A.** 1.325 ab

**Q.** And the “plants with 4 flower buds per plant” value (Marigold; 50 ng treatment)?
**A.** 2

**Q.** And the “Total Number of Marigold buds” value (Marigold; 20 ml/16 plants of 10^−7M LCO)?
**A.** 26

**Q.** What about the “Total Number of Marigold flower” value (Marigold; 20 ml/16 plants of 10^−7M LCO) of the same substance?
**A.** 0

**Q.** What about the “Total Number of Marigold buds” value (Marigold; 20 ml/16 plants of 10^−8M LCO) of the same substance?
**A.** 25

**Q.** And the “Total Number of Marigold flower” value (Marigold; 20 ml/16 plants of 10^−8M LCO)?
**A.** 2

**Q.** And the “Total Number of Marigold buds” value (Marigold; 20 ml/16 plants of 10^−9M LCO)?
**A.** 24

**Q.** And the “Total Number of Marigold flower” value (Marigold; 20 ml/16 plants of 10^−9M LCO)?
**A.** 1

**Q.** What about the “Total Number of Marigold buds” value (Marigold; [2]) of the same substance?
**A.** 34

**Q.** And the “Total Number of Marigold flower” value (Marigold; [2])?
**A.** 3
